Active and inactive are the calls of the source. How the calls were made is not given here.
What was measured:
PubChem AID 493099 = details: NIH-3T3 viability with fluconazole, Alamar Blue, 48 h
[1] = tested on: NIH-3T3 viability with fluconazole, Alamar Blue, 48 h; assay: PubChem AID 493099

SMILES | activity change, negative = toxicity (PubChem AID 493099; at 26 µM (top of the series)) | other results
O=C(Cn1c2ccc(F)cc2c2nc3n(c(=O)c21)CCS3)N1CCCCCC1 | -19.1% (inactive) | 
COC(=O)Cn1nc(C)c2ccccc21 | -5.29% (inactive) | 
Cc1nn(S(C)(=O)=O)c2ccccc12 | -23.9% (inactive) | 
COC(=O)Cn1nc(-c2ccccc2)c2ccccc21 | -16.9% (inactive) | 
N#Cc1ccc(C(=O)N2CCN(c3ccccn3)CC2)cc1 | 4.67% (inactive) | 
O=C(c1ccccc1Cl)N1CCN(c2ccccn2)CC1 | -7.93% (inactive) | 
COc1ccc2c(c1)c1nc3n(c(=O)c1n2CC(=O)N1CCC(C)CC1)CCS3 |  | activity change, negative = toxicity (PubChem AID 493099; at 2.6 µM (top of the series)): 18.1% (inactive)
O=C(O)c1c2ccccc2nn1Cc1ccc(Cl)cc1 | -7.54% (inactive) | 
O=C(Cn1c2ccccc2c2nc3n(c(=O)c21)CCS3)NCCc1ccc(Cl)cc1 | -7.62% (inactive) | 
O=C(c1ccc(Cl)cc1)N1CCN(c2ncccc2C(F)(F)F)CC1 | -21.5% (inactive) | 
CC(C)C(=O)N1CCN(c2ccccn2)CC1 | 7.76% (inactive) | 
CC1CCN(C(=O)Cn2c3ccc(F)cc3c3nc4n(c(=O)c32)CCCS4)CC1 | -15.8% (inactive) | 
O=C(O)c1nn(Cc2ccc(Cl)cc2)c2ccccc12 | -9.65% (inactive) | 
CCN(CC)C(=O)Cn1c2ccccc2c2nc3n(c(=O)c21)CCS3 | -27% (inactive) | AC50 [1]: > 26 µM (inactive)
N#Cc1cccnc1N1CCN(C(=O)c2ccc(Cl)cc2)CC1 | 6.33% (inactive) | 
O=C(Cn1nc(-c2ccccc2)c2ccccc21)N1CCc2ccccc2C1 | -10.2% (inactive) | 
COC(=O)Cn1nc(-c2ccc(Cl)cc2)c2ccccc21 | -11% (inactive) | 
CC1CCN(C(=O)Cn2c3ccccc3c3nc4n(c(=O)c32)CCCS4)CC1 | -25.8% (inactive) | 
O=C(O)Cn1nc(-c2ccccc2)c2ccccc21 | -27.1% (inactive) | 
O=C(Cn1nc(-c2ccccc2)c2cc(Cl)ccc21)N1CCOCC1 |  | AC50 [1]: > 26 µM (inactive)
CCCNC(=O)Cn1nc(-c2ccccc2)c2cc(Cl)ccc21 | -7.48% (inactive) | 
COc1ccc2c(c1)c1nc3n(c(=O)c1n2CC(=O)N1CCC(Cc2ccccc2)CC1)CCS3 | -12% (inactive) | 
CCCCC(=O)N1CCN(c2ccccn2)CC1 | -7.03% (inactive) | 
COCCC(=O)N1CCN(c2ccccn2)CC1 | -16% (inactive) | 
COc1ccc(C(=O)N2CCN(c3ccccn3)CC2)cc1 | -22.2% (inactive) | 
c1ccc(-c2n[nH]c3ccccc23)cc1 | -5.62% (inactive) | 

SMILES | activity change, negative = toxicity (PubChem AID 493099; at 26 µM (top of the series)) | other results
O=C(Cn1c2ccccc2c2ccncc21)N1CCCCC1 | -31.2% (inactive) | 
CC1CCN(C(=O)Cn2c3ccccc3c3nc4n(c(=O)c32)CCS4)CC1 | -20.3% (inactive) | 
CNC(=O)Cn1nc(-c2ccccc2)c2ccccc21 | -11.1% (inactive) | 
O=C(c1ccc(Cl)cc1)N1CCN(c2ccc(C(F)(F)F)cn2)CC1 | -6.38% (inactive) | 
N#Cc1ccc(N2CCN(C(=O)c3ccc(Cl)cc3)CC2)nc1 | -15.6% (inactive) | 
O=C(Cn1c2ccccc2c2nc3n(c(=O)c21)CCS3)N1CCCC1 | -17.5% (inactive) | AC50 [1]: 19.7 µM
O=C(c1ccc(Cl)cc1)N1CCN(c2nc3ccccc3s2)CC1 | -24% (inactive) | 
COC(=O)Cn1nc(-c2ccccc2)c2cc(Cl)ccc21 | -7.62% (inactive) | 
COc1cccnc1N1CCN(C(=O)c2ccc(Cl)cc2)CC1 | -12.3% (inactive) | 
COc1ccc(NC(=O)Cn2c3ccccc3c3nc4n(c(=O)c32)CCS4)cc1 |  | AC50 [1]: 6.04 µM
O=C(c1cccc(Cl)c1)N1CCN(c2ccccn2)CC1 | -24.6% (inactive) | 
O=C(C1CCCCC1)N1CCN(c2ccccn2)CC1 | -19.3% (inactive) | 
Cc1ccc(C(=O)N2CCN(c3ccccn3)CC2)cc1 | 5.98% (inactive) | 
Cc1ccc(N2CCN(C(=O)c3ccc(Cl)cc3)CC2)nc1 |  | AC50 [1]: > 26 µM (inactive)
CCOC(=O)c1c2ccccc2nn1Cc1ccc(Cl)cc1 | 3.93% (inactive) | 
CCOC(=O)c1nn(Cc2ccc(Cl)cc2)c2ccccc12 | -28.4% (inactive) | 
O=C(Cn1c2ccccc2c2nc3n(c(=O)c21)CCCS3)c1ccc(F)cc1 | -8.47% (inactive) | 
CCCNC(=O)Cn1nc(-c2ccccc2)c2ccccc21 | -5.82% (inactive) | 
O=c1c2[nH]c3ccccc3c2nc2n1CCS2 | -21.3% (inactive) | 
Cc1ccnc(N2CCN(C(=O)c3ccc(Cl)cc3)CC2)c1 | -11.8% (inactive) | 
COC(=O)Cn1nc(-c2ccc(C)cc2)c2ccccc21 | 0.677% (inactive) | 
Cc1cccc(N2CCN(C(=O)c3ccc(Cl)cc3)CC2)n1 | -19.6% (inactive) | 
COC(=O)Cn1c(-c2ccccc2)nc2ccccc21 | -4.41% (inactive) | 
O=C(Cn1nc(C(=O)N2CCCCC2)c2ccccc21)N1CCOCC1 | -2.32% (inactive) | 
O=c1c2[nH]c3ccc(F)cc3c2nc2n1CCS2 | 7.11% (inactive) | 
O=C(Cn1c2ccc(F)cc2c2nc3n(c(=O)c21)CCS3)N1CCCC1 | -34% (inactive) | 

From PubChem BioAssay AID493099 (Broad Institute, 2011)
